Measured values reported in patent publication US12298319B2, “Method for measuring alpha value of muscarinic M1 receptor positive allosteric modulators” (Takeda Pharmaceutical Company Limited, priority 2017, dated 2025).

Assays:
[1] = test system: IP1 production in the hippocampus; experiment: In vivo IP1 assay, hippocampus of wild-type and M1R KO mice; parameters: species or system mouse
Source text: Hippocampus was isolated from the brain.

[2] = test system: layer 5 pyramidal neurons; experiment: Electrophysiology, current clamp of layer 5 pyramidal neurons in mPFC slices; type: cell-based, mouse; settings: bath application, Compound D at 10 μM; for after hyperpolarization (AHP) / resting membrane potential (RMP): carbachol 10 M [sic] for 10 min; for after depolarization (ADP): carbachol for 10 min as printed
Description: Experiments were performed on coronal brain slices of the medial prefrontal cortex (mPFC) from 4-week-old male C57BL/6 mice. The animals were quickly sacrificed and the brain was placed in an ice-cold NMDG artificial cerebrospinal fluid (ACSF) (in mM): NMDG, 92; KCl, 2.5; CaCl2, 0.5; NaH2PO4, 1.25; MgSO4, 6; NaHCO3, 30; glucose, 25; HEPES, 20; thiourea, 2; Na-ascorbate, 5; and Na-pyruvate, 3) (Ting J. T. et al., Methods Mol Biol. 2014; 1183:221-42). Slices were cut at a thickness of 300 μm with a vibroslicer. Slices were initially transferred to a holding chamber containing NMDG aCSF for 15 minutes at 34° C. Slices were then transferred to a room temperature holding chamber for at least 1 h containing HEPES aCSF (in mM): NMDG, 92; KCl, 2.5; CaCl2, 2; NaH2PO4, 1.25; MgSO4, 2; NaHCO3, 30; glucose, 25; HEPES, 20; thiourea, 2; Na-ascorbate, 5; and Na-pyruvate, 3). Subsequently, the slices were transferred to the recording chamber, in which they were submerged and perfused with aCSF containing the following (in mM): NaCl, 124; KCl, 5; NaH2PO4, 1.2; MgCl2, 1.5; CaCl2, 2.5; glucose, 10; and NaHCO3, 24), at a flow rate of 1-2 ml/min. All buffers were continuously bubbled and saturated with carbogen (95% O2/5% CO2). Current clamp recordings were carried out at 32-33° C. from visually identified pyramidal neurons from layer 5 using a borosilicate pipette (5-7 MΩ) filled with intracellular solution (in mM): K-gluconate, 135; KCl, 4; HEPES, 10; EGTA, 0.2; MgATP, 4; Na2GTP, 0.3; pH 7.3 with KOH). Signals were acquired using a Multiclamp 700B amplifier and a Digidata 1440A interface board (Molecular Devices Japan, Tokyo, Japan), filtered between 2 kHz, sampled at 10 kHz, and analyzed with pClamp10 software.
M1Rs are known to contribute to the three cholinergic effects in layer 5 pyramidal neurons: the resting membrane potential (RMP) and physiological responses such as the after hyperpolarization (AHP) the after depolarization (ADP) that typically follow brief periods of action potential generation (Gulledge et al., J. Neurosci. 2009 Aug. 5; 29(31): 9888-9902). To investigate effects of M1 PAMs with different n value on brain function, cholinergic excitation by Compound D and Compound C were assessed. First, the muscarinic receptor agonist carbachol ([…] for 10 min) was tested by bath application (FIG. 13-A, FIG. 13-B, FIG. 13-C).

[3] = molecular target: T1, M5R (Homo sapiens, UniProt P08912); experiment: Ca2+ flux assay in CHO-K1 cells expressing human M5R; type: cell-based; parameters: expressed in transfected cells; host or cells: CHO-K1; settings: read-out: IP for M5R
T1 sequence (P08912 1-532): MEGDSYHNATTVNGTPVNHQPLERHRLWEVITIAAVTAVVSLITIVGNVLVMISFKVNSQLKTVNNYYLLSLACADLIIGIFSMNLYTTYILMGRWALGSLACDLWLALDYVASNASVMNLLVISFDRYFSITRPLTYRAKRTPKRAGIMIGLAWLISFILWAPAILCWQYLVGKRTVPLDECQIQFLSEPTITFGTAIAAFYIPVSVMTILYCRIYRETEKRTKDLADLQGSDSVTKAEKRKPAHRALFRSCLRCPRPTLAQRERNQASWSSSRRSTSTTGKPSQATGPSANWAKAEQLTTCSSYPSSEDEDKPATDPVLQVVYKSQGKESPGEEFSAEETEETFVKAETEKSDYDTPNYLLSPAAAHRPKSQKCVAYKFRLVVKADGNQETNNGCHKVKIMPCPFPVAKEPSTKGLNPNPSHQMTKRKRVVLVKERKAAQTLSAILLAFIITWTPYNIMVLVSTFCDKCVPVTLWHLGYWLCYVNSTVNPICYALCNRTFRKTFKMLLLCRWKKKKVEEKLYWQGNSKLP

## Cn1cc(-c2ccc(Cc3cc4c(=O)n([C@H]5CCCC[C@@H]5O)cnc4c4ccccc34)cn2)cn1 [Compound C, 3-((1S,2S)-2-hydroxycyclohexyl)-6-((6-(1-methyl-1H-pyrazol-4-yl)pyridin-3-yl)methyl)benzo[h]quinazoline-4(3H)-one, reference compound]
[1]; M1R KO mice, 10 mg/kg p.o.
  IP1 production in the hippocampus: not in M1R KO mice
[1]; wild-type mice, 10 mg/kg p.o.
  IP1 production in the hippocampus: significantly induced IP1 production
[2]
  after hyperpolarization (AHP): suppressed the AHP
  resting membrane potential (RMP): generated subthreshold changes in the RMP
  after depolarization (ADP): generated an ADP
[3]
  EC50: > 1 µM

## Cc1c(Cc2ccc(-n3cccn3)cc2)cc2c(c1F)CN([C@H]1COCC[C@@H]1O)C2=O [Compound D, 4-fluoro-2-[(3S,4S)-4-hydroxytetrahydro-2H-pyran-3-yl]-5-methyl-6-[4-(1H-pyrazol-1-yl)benzyl]-2,3-dihydro-1H-isoindol-1-one]
[1]; M1R KO mice, 3 mg/kg p.o.
  IP1 production in the hippocampus: did not induce IP1 production
[1]; wild-type mice, 3 mg/kg p.o., 3 h, % of vehicle-treated control
  IP1 production in the hippocampus: 153.3±9.3%
[2]
  after hyperpolarization (AHP): not depolarization of RMP and suppression of AHP
  resting membrane potential (RMP): not depolarization of RMP
  after depolarization (ADP): produced significant ADP generation
[3]
  EC50: > 10 µM
